For one compound, concentration, IC50 and receptor occupancy results are on record in PMC3501516, “Anti-Diabetic Efficacy and Impact on Amino Acid Metabolism of GRA1, a Novel Small-Molecule Glucagon Receptor Antagonist” (PLoS ONE, 2012).

Data set [1] is described as follows: Pharmacokinetics / plasma GRA1 concentrations in hGCGR mice. It is filed as in vivo. Particulars: mouse. On the procedure:
Under control conditions, hGCGR mice were normoglycemic and treatment of these animals with GRA1 lowered blood glucose concentrations only moderately.
Figure 2 In vivo inhibition of hepatic ^125I-glucagon binding in the hGCGR mouse following (A) acute and (B) chronic dosing with GRA1. The data are mean (±SEM) percent reductions in liver ^125I-glucagon content measured (A) 1, 3, 5, and 8 h after a single oral dose of 3 mg/kg GRA1, and (B) after treatment for 30 days with control diet or food/drug admixtures that provided 3, 6, 10, or 30 mg/kg·day GRA1. Pharmacokinetic analysis performed during the experiment in (A) determined that mean plasma GRA1 concentrations were 0.5, 0.6, 0.5, and 0.7 µM at 1, 3, 5, and 8 h postdose, respectively. TEXT PRINTED IN THE PICTURE: (A) no label printed: Receptor occupancy (%): 64% (Time postdose (h): 1); Receptor occupancy (%): 71% (Time postdose (h): 3); Receptor occupancy (%): 65% (Time postdose (h): 5); Receptor occupancy (%): 73% (Time postdose (h): 8) | (B) no label printed: Receptor occupancy (%): 71% (Dose (mg/kg): 3); Receptor occupancy (%): 78% (Dose (mg/kg): 6); Receptor occupancy (%): 83% (Dose (mg/kg): 10); Receptor occupancy (%): 93% (Dose (mg/kg): 30)
Figure 3 Blunting of glucagon-induced blood glucose excursions by GRA1 treatment in the (A) hGCGR mouse and (B) rhesus monkey. In (A), mice (n = 8) were administered vehicle or 3, 10 or 30 mg/kg GRA1, then challenged 1 h later (time 0) by intraperitoneal injection of 15 µg/kg glucagon or vehicle. Pharmacokinetic analysis determined that these animals had mean plasma GRA1 concentrations of 0.4, 0.9, and 4.7 µM, respectively, at 1 h postdose. In (B), monkeys (n = 4) were administered 1 mg/kg GRA1 4 h prior to intramuscular injection of 15 µg/kg glucagon or vehicle. At 1 h postdose, the mean plasma GRA1 concentration in these animals was 0.2 µM. *p<0.05; **p<0.01; and ***p<0.001 vs. glucagon-treated control animals.

Data set [2] deals with T1, VPAC2R (vasoactive adenylate cyclase-activating polypeptide receptor type 2) (Homo sapiens, UniProt P41587).
T1 construct: expressed in transfected cells
T1 sequence (P41587 24-438): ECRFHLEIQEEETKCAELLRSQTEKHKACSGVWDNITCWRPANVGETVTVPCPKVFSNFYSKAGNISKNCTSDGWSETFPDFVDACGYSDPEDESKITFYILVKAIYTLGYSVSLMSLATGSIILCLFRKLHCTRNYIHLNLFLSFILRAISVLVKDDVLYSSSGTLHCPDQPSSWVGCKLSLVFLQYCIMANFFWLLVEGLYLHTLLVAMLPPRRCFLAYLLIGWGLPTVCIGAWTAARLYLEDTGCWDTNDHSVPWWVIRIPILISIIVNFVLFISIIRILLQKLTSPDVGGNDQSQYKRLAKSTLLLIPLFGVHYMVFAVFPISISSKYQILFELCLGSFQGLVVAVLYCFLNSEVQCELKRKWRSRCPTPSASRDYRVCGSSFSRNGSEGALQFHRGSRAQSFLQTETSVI
In words: Inhibition of agonist-stimulated cAMP production in CHO cells expressing VPAC2R. Particulars: VPAC2-stimulated. It is filed as cell-based. From the text:
Transfected Chinese hamster ovary (CHO) cell lines were acquired and maintained as previously described, [20]. These included separate cell lines stably expressing human GCGR (hGCGR), mouse GCGR, rhesus GGCR, glucose-dependent insulinotropic peptide receptor (GIPR), GLP-1 receptor (GLP-1R), pituitary adenylate cyclase-activating polypeptide receptor type 1 (PAC1R), and vasoactive adenylate cyclase-activating polypeptide receptor type 2 (VPAC2R). Inhibition of glucagon binding to hGCGR was assayed in cell membranes prepared from the line of CHO cells that expressed the hGCGR. Functional antagonism was assayed by measuring the production of cAMP in intact CHO cells stimulated by agonists specific for their cognate receptors (i.e., glucagon for GCGR-expressing cell lines, GIP for the GIPR-expressing line, etc.). Primary human hepatocytes were obtained from In Vitro Technologies (Baltimore, MD) and glucagon-stimulated glycogenolysis was studied in these as previously described.
(In general: Cyclic AMP is a second messenger, typically raised through Gs and lowered through Gi signalling.)

The target in another data set is T2, hepatic hGCGR (Homo sapiens, UniProt P47871).
T2 construct: a transgenic line of mouse that expresses the hGCGR instead of the murine GCGR; from tissue; host or cells: liver of hGCGR mouse, in vivo
Put plainly: In vivo inhibition of hepatic 125I-glucagon binding (hGCGR occupancy) in hGCGR mouse. The procedure: Inhibition of ^125I-glucagon binding to hGCGR (a measure of hGCGR occupancy by antagonist) was assayed in hGCGR mouse liver in vivo as previously described. Glycogen content of perfused hGCGR mouse liver was measured as previously described. In brief, livers were perfused ex vivo with Ringers solution containing 6.7 mM [2-^13C]pyruvate while ^13C content (indicative of accumulated [^13C]glycogen) was monitored dynamically by nuclear magnetic resonance imaging.
Figure 2 In vivo inhibition of hepatic ^125I-glucagon binding in the hGCGR mouse following (A) acute and (B) chronic dosing with GRA1. The data are mean (±SEM) percent reductions in liver ^125I-glucagon content measured (A) 1, 3, 5, and 8 h after a single oral dose of 3 mg/kg GRA1, and (B) after treatment for 30 days with control diet or food/drug admixtures that provided 3, 6, 10, or 30 mg/kg·day GRA1.

Each structure is given as a SMILES string. pIC50: −log10 of the molar value. Where two headings read alike, the source gives them in different places.

T2 sequence (P47871 26-477): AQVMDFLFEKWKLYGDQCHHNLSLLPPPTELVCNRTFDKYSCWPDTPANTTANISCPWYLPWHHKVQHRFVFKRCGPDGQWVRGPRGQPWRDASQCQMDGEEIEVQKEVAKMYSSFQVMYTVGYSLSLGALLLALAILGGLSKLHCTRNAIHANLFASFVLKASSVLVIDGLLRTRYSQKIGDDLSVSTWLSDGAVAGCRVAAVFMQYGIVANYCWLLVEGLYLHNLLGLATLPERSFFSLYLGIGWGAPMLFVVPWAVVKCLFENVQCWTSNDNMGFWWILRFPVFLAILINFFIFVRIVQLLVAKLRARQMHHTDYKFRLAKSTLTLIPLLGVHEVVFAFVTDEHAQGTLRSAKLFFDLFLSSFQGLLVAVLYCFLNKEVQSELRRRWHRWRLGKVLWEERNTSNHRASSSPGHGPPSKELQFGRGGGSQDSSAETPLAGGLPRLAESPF

As to `COc1ccc2cc(-c3cc(-c4cc(C(F)(F)F)ccc4F)nn3[C@@H](C)c3ccc(C(=O)NCCC(=O)O)cc3)ccc2c1` [GRA1, N-[4-((1S)-1-{3-(2-fluoro-5-trifluoromethylphenyl)-5-[6-methoxynaphth-2-yl]-1H-pyrazol-1-yl}ethyl)benzoyl]-β-alanine], the concentration at 1 h turned out to be 400 nM in data set [1] (oral, 3 mg/kg p.o., 1 h postdose (glucagon challenge)); 900 nM in data set [1] (oral, 10 mg/kg p.o., 1 h postdose (glucagon challenge)); 4700 nM in data set [1] (oral, 30 mg/kg p.o., 1 h postdose (glucagon challenge)); 500 nM in data set [1] (single oral 3 mg/kg, 1 h postdose (occupancy experiment)). Moreover, the concentration at 3 h in data set [1] (single oral 3 mg/kg, 3 h postdose (occupancy experiment)) is 600 nM. Also, the concentration at 5 h in data set [1] (single oral 3 mg/kg, 5 h postdose (occupancy experiment)) stood at 500 nM. Besides, the concentration at 8 h in data set [1] (single oral 3 mg/kg, 8 h postdose (occupancy experiment)) was 700 nM. This compound had a pIC50 in data set [2] of 5.38. The receptor occupancy at 3 mg/kg on hepatic hGCGR (30 days food admixture, 3 mg/kg·day, read-out: Receptor occupancy) is 71%; on hepatic hGCGR (po, single oral dose 3 mg/kg, 1 h postdose, read-out: Receptor occupancy), 64%; on hepatic hGCGR (po, single oral dose 3 mg/kg, 3 h postdose, read-out: Receptor occupancy), 71%; on hepatic hGCGR (po, single oral dose 3 mg/kg, 5 h postdose, read-out: Receptor occupancy) it was 65%; at hepatic hGCGR (po, single oral dose 3 mg/kg, 8 h postdose, read-out: Receptor occupancy), 73%; on hepatic hGCGR (po, single oral dose 3 mg/kg, for 1–8 h, read-out: Reduction of in vivo occupancy of hepatic hGCGR by 125I-glucagon) it was 64 to 73%. Moreover, the receptor occupancy at 6 mg/kg on hepatic hGCGR (30 days food admixture, 6 mg/kg·day) was 78%. Besides, the receptor occupancy at 10 mg/kg on hepatic hGCGR (30 days food admixture, 10 mg/kg·day) came out at 83%. For the same compound, the receptor occupancy at 30 mg/kg on hepatic hGCGR (30 days food admixture, 30 mg/kg·day) was 93%.

By pIC50 is commonly meant −log10 of the IC50, conventionally taken in molar units. A lower pIC50 goes with a large IC50.
